Measured values: patent US20120045393A1 (priority 2009, published 2012)
pEC50: −log10 of the molar value. Like-named read-outs stand apart in the source and are kept apart here. Non-standard residues stand in square brackets, D forms with d. Residues, ends and D or L forms follow the SMILES beside them. *: point of attachment. DOTA = O=C(O)CN1CCN(CC(=O)O)CCN(CC(=O)*)CCN(CC(=O)O)CC1; Bpa = N[C@@H](Cc1ccc(C(=O)c2ccccc2)cc1)C(=O)O; azaGly = NNC(=O)O; Sar = CNCC(=O)O

System: LHRH binding sites on human ovarian cancer cells (EFO-27)
[1] = EFO-27 cells, competition with [125I-Tyr8]BRU-2477, 90 min
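Also: Cell-associated radioactivity on confluent EFO-27 monolayers in 96-well plates, measured by microplate scintillation counting.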

pEC50 | SMILES | pEC50 [1] | other results
 | N=C(N)NCCC[C@H](NC(=O)[C@@H](Cc1ccc2ccccc2c1)NC(=O)CN1CCN(CC(=O)O)CCN(CC(=O)O)CCN(CC(=O)O)CC1)C(=O)N[C@@H](Cc1c[nH]c2ccccc12)C(=O)N[C@@H](CO)C(=O)N[C@@H](Cc1c[nH]cn1)C(=O)N[C@H](CCCNC(=N)N)C(=O)N[C@@H](Cc1c[nH]c2ccccc12)C(=O)N[C@@H](Cc1ccc(C(=O)c2ccccc2)cc1)C(=O)N1C[C@H](c2ccccc2)C[C@H]1C(=O)NNC(N)=O [BRU-2953] |  | binding potency, times lower than BRU-2813 (ratio of EC50 to BRU-2813 (EC50=0.33 μM)): 2
 | CN(CC(=O)N[C@@H](Cc1cncn1C)C(=O)N[C@@H](Cc1c[nH]c2ccccc12)C(=O)N[C@@H](CO)C(=O)N[C@@H](Cc1c[nH]cn1)C(=O)N[C@H](CCCNC(=N)N)C(=O)N[C@@H](Cc1c[nH]c2ccccc12)C(=O)N[C@@H](Cc1ccc(C(=O)c2ccccc2)cc1)C(=O)N1CCC[C@H]1C(=O)NNC(N)=O)C(=O)CN1CCN(CC(=O)O)CCN(CC(=O)O)CCN(CC(=O)O)CC1 [BRU-2759] |  | pEC50 (Table 5: modifications of amino acids at positions 1 and 2, in vitro binding on EFO-27 cells): 5.00
 | N=C(N)NCCC[C@H](NC(=O)[C@H]1Cc2c([nH]c3ccccc23)CN1C(=O)CNC(=O)CN1CCN(CC(=O)O)CCN(CC(=O)O)CCN(CC(=O)O)CC1)C(=O)N[C@@H](Cc1c[nH]c2ccccc12)C(=O)N[C@@H](CO)C(=O)N[C@@H](Cc1c[nH]cn1)C(=O)N[C@H](CCCNC(=N)N)C(=O)N[C@@H](Cc1c[nH]c2ccccc12)C(=O)N[C@@H](Cc1ccc(C(=O)c2ccccc2)cc1)C(=O)N1CCC[C@H]1C(=O)NNC(N)=O [BRU-3068] | 6.62 | 
6.29 | N=C(N)NCCC[C@H](NC(=O)[C@@H](Cc1ccc2ccccc2c1)NC(=O)CN1CCN(CC(=O)O)CCN(CC(=O)O)CCN(CC(=O)O)CC1)C(=O)N[C@@H](Cc1c[nH]c2ccccc12)C(=O)N[C@@H](CO)C(=O)N[C@@H](Cc1c[nH]cn1)C(=O)N[C@H](CCCNC(=N)N)C(=O)N[C@@H](Cc1c[nH]c2ccccc12)C(=O)N[C@@H](Cc1ccc(C(=O)c2ccccc2)cc1)C(=O)N1CCC[C@H]1C(=O)NCCO [compound 2970] |  | 
4.76 | CN(CC(=O)N[C@@H](Cc1c[nH]cn1)C(=O)N[C@@H](Cc1c[nH]c2ccccc12)C(=O)N[C@@H](CO)C(=O)N[C@@H](Cc1c[nH]cn1)C(=O)N[C@H](CCCNC(=N)N)C(=O)N[C@@H](Cc1c[nH]c2ccccc12)C(=O)N[C@@H](Cc1cccnc1)C(=O)N1CCC[C@H]1C(=O)NNC(N)=O)C(=O)CN1CCN(CC(=O)O)CCN(CC(=O)O)CCN(CC(=O)O)CC1 [BRU-2726] |  | 
 | N=C(N)NCCC[C@H](NC(=O)[C@@H](Cc1ccc2ccccc2c1)NC(=O)CN1CCN(CC(=O)O)CCN(CC(=O)O)CCN(CC(=O)O)CC1)C(=O)N[C@@H](Cc1c[nH]c2ccccc12)C(=O)N[C@@H](CO)C(=O)N[C@@H](Cc1c[nH]cn1)C(=O)N[C@H](CCCNC(=N)N)C(=O)N[C@@H](Cc1c[nH]c2ccccc12)C(=O)N[C@@H](Cc1ccc(C(=O)c2ccccc2)cc1)C(=O)N1CCC[C@H]1C(=O)NCC(=O)NCCCCO [compound 2978] | 5.70 | 
≥ 6.70 | CNCC(=O)N[C@@H](CCCNC(=N)N)C(=O)N[C@@H](Cc1c[nH]c2ccccc12)C(=O)N[C@@H](CO)C(=O)N[C@@H](Cc1c[nH]cn1)C(=O)N[C@H](CCCNC(=N)N)C(=O)N[C@@H](Cc1c[nH]c2ccccc12)C(=O)N[C@@H](Cc1ccc(C(=O)c2ccccc2)cc1)C(=O)N1CCC[C@H]1C(=O)NCCCN(C)CCCNC(=O)CN1CCN(CC(=O)O)CCN(CC(=O)O)CCN(CC(=O)O)CC1 [BRU-3045] |  | 
 | CN(CC(=O)N[C@@H](Cc1c[nH]cn1)C(=O)N[C@@H](Cc1c[nH]c2ccccc12)C(=O)N[C@@H](CO)C(=O)N[C@@H](Cc1c[nH]cn1)C(=O)N[C@H](Cc1c[nH]c2ccccc12)C(=O)N[C@@H](Cc1c[nH]c2ccccc12)C(=O)N[C@@H](Cc1ccc(C(=O)c2ccccc2)cc1)C(=O)N1CCC[C@H]1C(=O)NNC(N)=O)C(=O)CN1CCN(CC(=O)O)CCN(CC(=O)O)CCN(CC(=O)O)CC1 [compound 2731] ({DOTA}-[Sar]HWSH[dW]W[Bpa]P[azaGly]-NH2) | 5.87 | 
